Laboratory results reported in paper PMC5617480 (Oncotarget, 2017).

Test system: KM mice
Assay: Acute toxicity studies, single dose
Assay type: in vivo
Details: for Death (%) on day 14 / No. of death mice, Five-fourteen day / No. of death mice, Four day / No. of death mice, One day / No. of death mice, Three day / No. of death mice, Two day / Total death: 10 animals
Procedure: We further evaluated the safety of chiral platinum(II) complex 6 by using KM mice via the tail vein injection with a single dose of complex 6 at 15, 12, 9.6 and 7.8 mg/kg, respectively. After 14 days, the mortality rate of mice was calculated (Supplementary Figure 31 and Supplementary Table 10). […] However, at higher doses (>7.8 mg/kg), death of mice occurred. Thus, the doses of 7.8 mg/kg of complex 6 were employed in the further in vivo experiment.

[1] = single tail vein dose 7.8 mg/kg
[2] = single tail vein dose 9.6 mg/kg

Substance: cis-[PtCl2(S-(–)-FOA)] [complex 6]
- Death (%) on day 14 [1]: 0%
- No. of death mice, Five-fourteen day [1]: 0
- No. of death mice, Four day [1]: 0
- No. of death mice, One day [1]: 0
- No. of death mice, Three day [1]: 0
- No. of death mice, Two day [1]: 0
- Total death [1]: 0
- acute toxicity finding (single tail vein dose 7.8 mg/kg, 14 days): did not kill any animal or cause any abnormality
- Death (%) on day 14 [2]: 10%
- No. of death mice, Five-fourteen day [2]: 0
- No. of death mice, Four day [2]: 0
- No. of death mice, One day [2]: 0
- No. of death mice, Three day [2]: 0
- No. of death mice, Two day [2]: 1
- Total death [2]: 1
- Death (%) on day 14 (single tail vein dose 12 mg/kg): 40%
- No. of death mice, Five-fourteen day (single tail vein dose 12 mg/kg): 0
- No. of death mice, Four day (single tail vein dose 12 mg/kg): 0
- No. of death mice, One day (single tail vein dose 12 mg/kg): 3
- No. of death mice, Three day (single tail vein dose 12 mg/kg): 1
- No. of death mice, Two day (single tail vein dose 12 mg/kg): 1
- Death (%) on day 14 (single tail vein dose 15 mg/kg): 90%
- No. of death mice, Five-fourteen day (single tail vein dose 15 mg/kg): 0
- No. of death mice, Four day (single tail vein dose 15 mg/kg): 0
- No. of death mice, One day (single tail vein dose 15 mg/kg): 7
- No. of death mice, Three day (single tail vein dose 15 mg/kg): 1
- No. of death mice, Two day (single tail vein dose 15 mg/kg): 1
- Total death (single tail vein dose 15 mg/kg): 9
